Key:
Type in all cases: in vivo
[1] = system: larvae of the fall army worm (Spodoptera frugiperda); assay: Spodoptera frugiperda test (cabbage leaf dip, larval mortality); settings: mortality after 4 days
Description: (§1) Solvent: 7 parts by weight of dimethylformamide
(§2) Emulsifier: 2 parts by weight of alkylaryl polyglycolether
(§3) To produce a suitable preparation of active compound, 1 part by weight of active compound is mixed with the stated amount of solvent and emulsifier, and the concentrate is diluted with emulsifier-containing water to the desired concentration. Cabbage leaves (Brassica oleracea) are treated by being dipped into the preparation of the active compound at the desired concentration and are infested with larvae of the fall army worm (Spodoptera frugiperda) as long as the leaves are still moist. After a period of time of 4 days, the mortality is determined. 100% means that all the caterpillars have been killed; 0% means that none of the caterpillars have been killed.

[2] = system: larvae of the diamond black moth Plutella xylostella; assay: Plutella xylostella test (cabbage leaf dip, larval mortality); settings: mortality after 4 days
Description: as §1, §2
as §3, with “diamond black moth Plutella xylostella” for “fall army worm (Spodoptera frugiperda)”

[3] = system: larvae of the beet army worm (Spodoptera exigua); assay: Spodoptera exigua test (cabbage leaf dip, larval mortality); settings: mortality after 6 days; rate of application 100 ppm
Description: as §1, §2
as §3, with “beet” for “fall”, “exigua)” for “frugiperda)”, “6” for “4”

Compound	Efficacy (%) ([1]; rate of application 100 ppm)	Efficacy (%) [3] [%]	Efficacy (%) ([1]; rate of application 20 ppm)	also measured
CN1COCN(Cc2cnc(Cl)s2)/C1=N\[N+](=O)[O-] [thiamethoxam]	0			
CCCOC(=O)NCCCN(C)C.Cl [propamocarb, propyl[3-(dimethylamino)propyl]carbamate hydrochloride]	0	0		Efficacy (%) ([2]; rate of application 200 ppm): 25%; Efficacy (%) ([1]; rate of application 200 ppm): 0%
CN/C(=N\[N+](=O)[O-])NCc1cnc(Cl)s1 [clothianidin]		45	0	
N#C/N=C1\SCCN1Cc1ccc(Cl)nc1 [thiacloprid]				Efficacy (%) ([2]; rate of application 20 ppm): 20%
O=[N+]([O-])NC1=NCCN1Cc1ccc(Cl)nc1 [imidacloprid]			0	

Source: patent US9161541B2, “Pesticide composition comprising propamocarb-hydrochloride and an insecticide active substance” (priority 2006, dated 2015)
